From ChEMBL document CHEMBL1201862, “PubChem BioAssay data set” (2004)
Activity calls are given as the source filed them.

Tests used:
[1] = biological target: T1, RNA-binding protein pos-1 (Caenorhabditis elegans, UniProt G5EF15); assay: disruptors of C. elegans POS-1 RNA interaction – biochemical, fluorescence polarization, dose response (AID 1964);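 also: purified POS-1 fused to maltose binding protein made in E. coli; potency of compounds blocking POS-1 binding to fluorescent RNA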
T1 sequence (G5EF15 whole entry): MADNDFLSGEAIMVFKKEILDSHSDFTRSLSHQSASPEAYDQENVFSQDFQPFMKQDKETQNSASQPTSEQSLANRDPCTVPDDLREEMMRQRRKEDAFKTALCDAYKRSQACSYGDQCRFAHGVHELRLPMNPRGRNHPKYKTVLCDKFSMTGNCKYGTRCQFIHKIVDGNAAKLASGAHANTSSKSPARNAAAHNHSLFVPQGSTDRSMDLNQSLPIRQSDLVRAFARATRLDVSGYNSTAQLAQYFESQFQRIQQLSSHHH

[2] = biological target: T2, Zinc finger protein mex-5 (Caenorhabditis elegans, UniProt Q9XUB2); assay: potency of MEX-5 RNA-binding blockers – biochemical, C. elegans, fluorescence polarization, dose response (AID 1960)
T2 sequence (Q9XUB2 whole entry): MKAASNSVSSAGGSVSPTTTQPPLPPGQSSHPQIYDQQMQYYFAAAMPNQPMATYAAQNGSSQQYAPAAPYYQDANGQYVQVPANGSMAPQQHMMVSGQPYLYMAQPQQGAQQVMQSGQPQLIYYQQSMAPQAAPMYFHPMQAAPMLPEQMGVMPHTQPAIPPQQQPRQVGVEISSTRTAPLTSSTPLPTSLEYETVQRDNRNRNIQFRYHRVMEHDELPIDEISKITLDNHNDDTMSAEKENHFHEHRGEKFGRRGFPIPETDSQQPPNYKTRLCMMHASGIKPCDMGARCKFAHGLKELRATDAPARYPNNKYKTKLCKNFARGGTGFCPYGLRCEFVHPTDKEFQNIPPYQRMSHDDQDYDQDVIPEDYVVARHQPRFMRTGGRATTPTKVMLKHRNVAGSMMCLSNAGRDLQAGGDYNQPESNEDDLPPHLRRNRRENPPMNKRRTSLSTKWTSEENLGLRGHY

[3] = biological target: T3, Sentrin-specific protease 8 (Homo sapiens, UniProt Q96LD8); assay type: functional;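 also: kinetic enzyme assay of SENP8 cleaving a Nedd8 protein substrate, dose-response confirmation of screening hits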
T3 sequence (Q96LD8 whole entry): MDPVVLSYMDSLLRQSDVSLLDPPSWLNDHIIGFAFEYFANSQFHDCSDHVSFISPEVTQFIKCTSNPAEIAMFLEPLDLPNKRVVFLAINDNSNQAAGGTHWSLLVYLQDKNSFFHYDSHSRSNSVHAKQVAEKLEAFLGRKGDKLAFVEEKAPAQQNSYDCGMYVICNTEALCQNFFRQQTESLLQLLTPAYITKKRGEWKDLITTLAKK

[4] = biological target: T4, Tyrosyl-DNA phosphodiesterase 2 (Homo sapiens, UniProt O95551); assay: potency against TDP2 phosphodiesterase activity – biochemical, epi absorbance, IC50, dose response (AID 743297)
T4 sequence (O95551 whole entry): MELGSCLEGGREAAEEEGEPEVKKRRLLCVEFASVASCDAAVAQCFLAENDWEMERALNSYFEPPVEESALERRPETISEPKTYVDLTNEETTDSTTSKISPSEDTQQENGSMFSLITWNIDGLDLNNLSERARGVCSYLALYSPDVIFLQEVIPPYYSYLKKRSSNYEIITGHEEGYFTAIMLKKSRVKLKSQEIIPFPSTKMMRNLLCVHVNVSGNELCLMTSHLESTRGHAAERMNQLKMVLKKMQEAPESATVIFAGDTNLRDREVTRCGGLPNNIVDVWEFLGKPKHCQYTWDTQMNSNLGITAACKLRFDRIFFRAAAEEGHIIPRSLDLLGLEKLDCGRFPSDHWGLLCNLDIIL

[5] = biological target: Dual specificity tyrosine-phosphorylation-regulated kinase 1A (Rattus norvegicus, UniProt Q63470); assay type: biochemical, Homo sapiens
[6] = biological target: Protein disulfide-isomerase A6 (Homo sapiens, UniProt Q15084); assay: reduced insulin turbidity driven by ERp5 (PDIA6) – biochemical, absorbance 650 nm, cherry-picked samples, dose response (AID 720566)
Protein disulfide-isomerase A6, sequence (Q15084 whole entry): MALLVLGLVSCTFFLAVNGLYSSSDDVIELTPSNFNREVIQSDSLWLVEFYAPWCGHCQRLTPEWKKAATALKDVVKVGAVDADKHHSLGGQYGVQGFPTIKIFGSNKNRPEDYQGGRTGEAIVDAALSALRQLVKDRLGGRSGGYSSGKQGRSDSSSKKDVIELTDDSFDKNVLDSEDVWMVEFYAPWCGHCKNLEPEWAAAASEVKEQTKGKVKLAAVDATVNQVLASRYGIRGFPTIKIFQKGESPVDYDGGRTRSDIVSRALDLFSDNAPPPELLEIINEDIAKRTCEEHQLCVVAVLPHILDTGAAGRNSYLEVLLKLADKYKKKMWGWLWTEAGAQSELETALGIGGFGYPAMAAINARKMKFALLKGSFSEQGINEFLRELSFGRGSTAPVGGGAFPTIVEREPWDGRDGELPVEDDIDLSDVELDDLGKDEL

Protein RecA = biological target: T5, Protein RecA (Mycobacterium tuberculosis, UniProt P9WHJ3); assay: Fluorescence Cell-Free Homogeneous Dose Retest to Identify Inhibitors of RecA-Intein Splicing Activity. [Related pubchem assays (depositor defined):AID2097, AID2223, AID489010, AID492950]; assay type: functional
T5 sequence (P9WHJ3 whole entry): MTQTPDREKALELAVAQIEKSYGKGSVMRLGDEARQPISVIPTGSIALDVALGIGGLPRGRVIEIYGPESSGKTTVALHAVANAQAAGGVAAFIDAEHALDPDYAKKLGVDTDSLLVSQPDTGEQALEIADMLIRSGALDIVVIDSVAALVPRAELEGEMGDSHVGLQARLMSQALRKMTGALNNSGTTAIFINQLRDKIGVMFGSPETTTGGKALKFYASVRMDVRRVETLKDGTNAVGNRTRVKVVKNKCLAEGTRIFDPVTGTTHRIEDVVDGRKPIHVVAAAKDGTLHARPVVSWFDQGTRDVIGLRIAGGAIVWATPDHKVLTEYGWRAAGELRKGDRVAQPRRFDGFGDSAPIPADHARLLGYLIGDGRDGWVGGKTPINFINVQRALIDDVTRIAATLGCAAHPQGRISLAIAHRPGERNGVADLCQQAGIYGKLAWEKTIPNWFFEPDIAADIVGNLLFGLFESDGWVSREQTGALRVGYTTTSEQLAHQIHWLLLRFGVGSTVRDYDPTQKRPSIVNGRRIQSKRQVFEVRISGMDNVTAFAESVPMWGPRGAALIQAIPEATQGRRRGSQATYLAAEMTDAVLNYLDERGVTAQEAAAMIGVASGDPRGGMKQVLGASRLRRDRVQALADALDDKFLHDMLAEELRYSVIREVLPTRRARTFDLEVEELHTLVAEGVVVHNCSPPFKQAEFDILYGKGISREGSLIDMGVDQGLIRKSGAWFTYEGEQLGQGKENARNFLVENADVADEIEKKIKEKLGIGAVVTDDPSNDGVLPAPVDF

INS1 = assay: INS-1E survival protection against cytokine death – cell-based, luminescence, retest, dose response (AID 449756); assay type: functional; conditions: Rattus norvegicus;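 also: cell death triggered by IL-1 beta plus TNF-alpha plus IFN-gamma mixture; protective hits raise ATP signal compared with cytokine alone wells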
[7] = biological target: T6, Dual specificity protein phosphatase 6 (Rattus norvegicus, UniProt Q64346); assay: inhibition of rat DUSP6 enzyme activity – biochemical, in vitro, primary screen (AID 425)
T6 sequence (Q64346 whole entry): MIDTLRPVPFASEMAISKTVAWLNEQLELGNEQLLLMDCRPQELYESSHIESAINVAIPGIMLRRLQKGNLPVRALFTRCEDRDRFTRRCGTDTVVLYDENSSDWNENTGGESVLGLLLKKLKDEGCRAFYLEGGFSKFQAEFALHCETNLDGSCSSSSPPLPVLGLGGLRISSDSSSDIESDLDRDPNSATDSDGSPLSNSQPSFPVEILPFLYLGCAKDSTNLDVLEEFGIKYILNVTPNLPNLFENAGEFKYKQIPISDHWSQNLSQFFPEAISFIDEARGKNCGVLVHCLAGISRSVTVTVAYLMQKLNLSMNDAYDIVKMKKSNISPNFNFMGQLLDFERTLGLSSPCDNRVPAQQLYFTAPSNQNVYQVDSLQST

SMILES | EC50 [1] | EC50 [2] | IC50 [4] | AC50 [5] | EC50 (Protein RecA) | IC50 [7] | also measured
O=C1c2ccccc2C(=O)c2[nH]c(O)nc21 | 28900 nM (active) | 17900 nM (active) | – | – | – | – | –
CCOC(=O)C1=C(C)OC2(O)c3ccccc3C(=O)C12O (stereo not given) | – | – | 4110 nM (active) | – | – | – | IC50 [3]: 284 nM (active)
COC(=O)c1cc(C)nc2c1C(=O)C(=O)C=C2N1CCOCC1 | – | – | 1330 nM (active) | 983 nM (active) | 199 nM (active) | – | AC50 [6]: 45100 nM (active); AC50 (INS1): 2710 nM (active)
NS(=O)(=O)c1cc(C(=O)NC2CCSc3ccccc32)ccc1Cl (stereo not given) | 13400 nM (inconclusive) | 18900 nM (inconclusive) | – | – | – | > 158000 nM (not active) | –
N#Cc1c(N2CCCC2)nc(N)c2c(N)nc(N3CCCC3)cc12 | – | – | – | 287 nM (active) | 109 nM (active) | 1050 nM (active) | –
